Assay results: patent US12054497B2, “Substituted heterocyclic fused cyclic compound, preparation method therefor and pharmaceutical use thereof” (GENFLEET THERAPEUTICS (SHANGHAI) INC., priority 2019, dated 2024)

Tests used:
KRas G12C = KRas G12C (Homo sapiens (Human), UniProt P01116, G12C); assay: Nucleotide exchange assay (NEA)-HTRF, SOS1 catalyzed displacement of GDP by GTP (Test Example 4); format: biochemical
Experimental: The effects of compounds on SOS1 catalyzed displacement of GDP by GTP on KRas proteins was examined by homogeneous time-resolved fluorescence (HTRF). 30 μM 6×his labeled KRas G12C recombinant protein and 80 μM fluorochrome DY647 labeled GDP were co-incubated in a labeling buffer (1 mM DTT, 7.5 mM EDTA, 25 mM Tris-HCl, 45 mM NaCl) at 20° C. away from light for 2 hours. Protein quantification was performed after purification on the NAP-5 column to determine the concentration of KRas G12C-GDP.
1000× stock solutions of compounds at a concentration gradient of 3.16 were prepared by using DMSO, and diluted 250 times by a reaction buffer (40 mM N-2-hydroxyethylpiperazine-N-2-ethane sulfonic acid (HEPES), 10 mM MgCl2, 1 mM DTT, 0.002% Triton X-100) into 4× stock solutions of compounds. KRas G12C-GDP/Tb working solution (40 nM KRas G12C-GDP, 1×anti-his Tb) and SOS1/GTP working solution (0.2 μM SOS1, 200 μM GTP) were prepared by using the reaction buffer.
5 μl of 4×stock solution of a compound and 10 μl of KRas G12C-GDP/T working solution were added to each well of 96-well plate with white unclear bottom, and 5 μl of reaction buffer was added to the well of control group in stead of the 4×stock solution of a compound. After incubation at 20° C. away from light for 15 minutes, 5 μl of SOS1/GTP working solution was added and incubated at 20° C. away from light for 2 hours, and then a value of fluorescence intensity was read (excitation wavelength: 320 nm, and emission wavelengths: 615 nm and 665 nm). Besides, group TO was established with 10 μl of the reaction buffer and 10 μl of the KRas G12C-GDP/Tb working solution, and the value of fluorescence intensity was directly read. A relative light unit (RLU) was calculated by the following equation: RLU=(665 nm signal/615 nm signal)×10^4; and the inhibition rate (IR) of the compound was calculated by the following equation: IR (%)=(RLUcompound−RLUcontrol)/(RLUT0−RLUcontrol)×100%. The value of IC50 was calculated by fitting a gradiently diluted concentration of the compound and the corresponding cell proliferation inhibition rate using a four-parameter method.

[1] = system: NCI-H358 cells with Kras G12C mutation; assay: Cell proliferation inhibition experiment, 3D spheroid, CellTiter-Glo (Test Example 1); format: cell-based, human; details: 5 days
Experimental: (§1) NCI-H358 was a human NSCLC cell line with Kras G12C mutation, which was cultured in a RPMI-1640 medium with 10% fetal bovine serum (FBS). A549 was a human lung adenocarcinoma cell line with Kras G12S mutation, which was cultured in an F-12K medium with 10% FBS. Cells in logarithmic growth phase were detached with trypsin and EDTA, collected and counted, and H358 was regulated to 1.8E4 cells/ml by using an RPMI-1640 medium with 2% FBS, while A549 was regulated to 8.9E3 cells/ml with an F-12K medium containing 2% FBS. 800 (45 μl) H358 cells and 400 (45 μl) A549 cells were seeded to 384-well spheroid plates, respectively, and cultured overnight to establish 3D cell models. 1000× stock solutions of compounds at a concentration gradient of 3.16 were prepared by using DMSO, and diluted 100 times by the medium with 2% FBS into 10× stock solutions of compounds. On the day after cell seeding, 5 μl of 10× stock solution of a compound was added to each well of cell culture plate, with a final concentration being 1× and a DMSO content of 0.1%. DMSO was used as the control, and the medium with 2% FBS was used as blank control group. After 5 days of cell culture with the compound, 25 μl of CellTiter-Glo working solution was added to each well, and mixed uniformly at 400 rpm and incubation for 30 minutes. After standing at room temperature for 30 minutes, 40 μl of mixed solution was transferred to a 384-well plate with white clear bottom. A value of luminescence was then read, and a cell proliferation inhibition rate (IR) (%)=(RLU control-RLU compound)/(RLU control−RLU blank)×100%. The value of IC50 was calculated by fitting a gradiently diluted concentration of the compound and the corresponding cell proliferation inhibition rate using a Prism 6 four-parameter method.

[2] = system: A549 cells with Kras G12S mutation; assay: as above; format: cell-based, human; details: 5 days
Experimental: as §1

[3] = system: MIA PaCa-2 cells with Kras G12C mutation; assay: Cell proliferation inhibition experiment, 3D spheroid, CellTiter-Glo (Test Example 3); format: cell-based, human; details: Homo sapiens, MIA PaCa-2, 120 h, 5 days, read-out: MIA-PaCa2 IC50
Experimental: MIA PaCa-2 was a human pancreatic carcinoma cell line with Kras G12C mutation, which was cultured in a DMEM with 10% FBS and 2.5% Horse serum. A549 was a human lung adenocarcinoma cell line with Kras G12S mutation, which was cultured in an F-12K medium with 10% FBS. Cells in logarithmic growth phase were detached with trypsin and EDTA, collected and counted, and 200 MIA PaCa-2 cells and 400 A549 cells were seeded to 384-well spheroid plates, respectively, and cultured overnight to establish 3D cell models. 1000× stock solutions of compounds at a concentration gradient of 3.16 were prepared by using DMSO, and diluted 100 times by the medium into 10× stock solutions of compounds. On the day after cell seeding, 10× stock solution of a compound was added to each well of cell culture plate, with a final concentration being 1× and a DMSO content of 0.1%. DMSO was used as the control, and the medium was used as the blank. After 5 days of cell culture with the compound, 30 μl of CellTiter-Glo working solution was added to each well, and mixed uniformly and incubation for 30 minutes. After standing at room temperature for 30 minutes, 40 μl of mixed solution was transferred to a 384-well plate with white unclear bottom. A value of luminescence intensity was then read, and a cell proliferation inhibition rate (IR) (%)=(RLU control−RLU compound)/(RLU control−RLU blank)×100%. The value of IC50 was calculated by fitting a gradiently diluted concentration of the compound and the corresponding cell proliferation inhibition rate using an XLFit four-parameter method.

[4] = system: subcutaneous xenograft tumor model of MIA PaCa-2; assay: In vivo pharmacodynamic experiment, tumor growth inhibition (Test Example 5); design: species or system BALB/c nude mice; details: p.o., QD; for TGI: day 14
Experimental: Experimental objective: to evaluate the in vivo pharmaceutical effects of tested compounds on the subcutaneous xenograft tumor model of MIA PaCa-2.
Experimental operation: 6 to 8 weeks old female BALB/c nude mice each having the body weight of 18-20 g were chosen. MIA PaCa-2 cells were cultured in DMEM containing 10% FBS, 2.5% HS and 1% penicillin-streptomycin at 37° C. in an incubator with 5% CO2. Cells were collected. The MIA PaCa-2 cells were subcutaneously inoculated to the animals at their backs on the right, 2.0×10^6 cells (0.1 mL) for each animal. When tumor grew to 190-311 mm^3, mice with tumor having a suitable size were chosen and treated in groups, with administration dosages shown in Table 5 below. The animals were weighed on an electronic balance each day. The tumor volume was investigated by using a vernier caliper twice a week. The tumor volume was calculated by the following equation: V=0.5 a×b^2, a and b representing the long diameter and the short diameter of the tumor, respectively. The tumor volume was used to calculate a tumor growth inhibition rate (TGI), and the TGI shown in the form of a percentage was used to indicate the antineoplastic activity of a compound. The TGI was calculated by the following equation: TGI (%)=[1−avTi−0/avCi−0)]×100, with avTi−0 representing the average tumor volume of the group administrated with the compound on a specific day minus the average tumor volume of this group on the day of grouping, and avCi−0 representing the average tumor volume of the solvent control group on a specific day minus the average tumor volume of the solvent control group on the day of grouping. The tumor volume was shown in the form of an average value±standard error of mean (SEM).

[5] = system: phosphorylated ERK in MIA PaCa2 cells with Kras G12C mutation; assay: p-ERK HTRF assay for cells (Test Example 2); format: cell-based, human; details: Homo sapiens, MIA PaCa-2, 2 h, MIA PaCa2 cells, 2 hours with compound; read-out: p-ERK IC50
Experimental: MIA PaCa2 was a human pancreatic carcinoma cell line with Kras G12C mutation, which was cultured in a DMEM with 10% FBS and 2.5% Horse serum. Cells in logarithmic growth phase were detached with trypsin and EDTA, collected and counted, and 2.5E4 cells were seeded to a 96-well cell culture plate and cultured overnight. 1000× stock solutions of compounds at a concentration gradient of 3.16 were prepared by using DMSO, and diluted 200 times by the medium into 5× stock solutions of compounds. On the day after cell seeding, 5× stock solution of a compound was added to each well of cell culture plate, with a final concentration being 1× and a DMSO content of 0.1%. DMSO was used as the control. The residual culture was removed after culturing for 2 hours with the compound. To each well, 50 ul of cell lysis buffer was added and mixed uniformly and incubation for 30 minutes. Subsequently, 16 ul of mixed solution was transferred to a 96-well plate with white unclear bottom, and 16 ul of cell lysis buffer was added to the blank control group. After the completion of transfer, 4 ul of p-ERK HTRF antibody mixture was added to each well, and a value of fluorescence intensity was read after incubation for 4 hours. The inhibition rate (IR) of the compound was calculated by the following equation: IR (%)=(RLU control-RLU compound)/(RLU control−RLU blank)×100%. The value of IC50 was calculated by fitting a gradiently diluted concentration of the compound and the corresponding cell proliferation inhibition rate using a Prism 8 four-parameter method.

Chain of KRas G12C (P01116-2 other isoform, or with tags, fused parts or gaps G12C): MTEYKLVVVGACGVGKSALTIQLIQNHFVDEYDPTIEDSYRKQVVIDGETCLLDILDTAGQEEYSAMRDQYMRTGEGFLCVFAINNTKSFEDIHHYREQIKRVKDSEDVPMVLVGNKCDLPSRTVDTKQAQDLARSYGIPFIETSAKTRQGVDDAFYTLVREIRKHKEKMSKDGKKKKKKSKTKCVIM

| Compound | IC50 (KRas G12C) | IC50 [1] | IC50 [2] | IC50 ([2]; Homo sapiens, A549, 120 h) | also measured |
| --- | --- | --- | --- | --- | --- |
| C=CC(=O)N1CCN2c3c(c(=O)n(-c4c(C)ccnc4C(C)C)c4nc(-c5c(O)cccc5F)c(F)cc34)OC[C@H]2C1 (atropisomer, axis not shown) [Compound Z1-2] | 1430 nM |  |  |  |  |
| C=CC(=O)N1C[C@@H]2C(=O)N(C)c3c(c4cc(F)c(-c5c(O)cccc5F)nc4n(-c4c(C#N)cccc4C(C)C)c3=O)N2C[C@H]1C (atropisomer, axis not shown) [Compound Z38-2, 2-((2R,4aR)-3-acryloyl-11-fluoro-10-(2-fluoro-6-hydroxyphenyl)-2,6-dimethyl-5,7-dioxo-2,3,4,4a,5,6-hexahydro-1H-pyrazino[1′,2′:4,5]pyrazino[2,3-c][1,8]naphthyridin-8(7H)-yl)-3-isopropylbenzonitrile] | 2150 nM | 513 nM | > 30000 nM |  |  |
| C=CC(=O)N1CCN2c3c(c(=O)n(-c4c(C)ccnc4C(C)C)c4nc(-c5c(O)cccc5F)c(F)cc34)N(C)C(=O)[C@H]2C1 (single isomer, unassigned) [Compound Z9-1] | 2570 nM | 218 nM |  | > 10000 nM |  |
| C=CC(=O)N1CCN2c3c(c(=O)n(-c4c(C)ncnc4C(C)C)c4nc(-c5c(O)cccc5F)c(F)cc34)N(C)C(=O)[C@H]2C1 (single isomer, unassigned) [Compound Z21-2] | 3940 nM | 407 nM | > 30000 nM |  |  |
| C=CC(=O)N1CCN2c3c(c(=O)n(-c4c(C)ccnc4C(C)C)c4nc(-c5c(O)cccc5F)c(Cl)cc34)N(C)C(=O)[C@H]2C1 (single isomer, unassigned) [Compound Z25-1] | 951 nM | 50 nM |  | > 30000 nM |  |
| [2H]C([2H])([2H])N1C(=O)[C@H]2CN(C(=O)C=C)CCN2c2c1c(=O)n(-c1c(C)ccnc1C(C)C)c1nc(-c3c(O)cccc3F)c(Cl)cc21 (single isomer, unassigned) [Compound Z26-1] | 868 nM | 42 nM | > 30000 nM |  |  |
| C=CC(=O)N1CCN2c3c(c(=O)n(-c4c(C(C)C)ncnc4C(C)C)c4c(F)c(-c5c(O)cccc5F)c(Cl)cc34)NC(=O)[C@H]2C1 (single isomer, unassigned) [Compound Z37-2] | 1900 nM | 165 nM | 3320 nM |  |  |
| [2H]C([2H])([2H])N1C(=O)[C@H]2CN(C(=O)C=C)CCN2c2c1c(=O)n(-c1c(C(C)C)ncnc1C(C)C)c1c(F)c(-c3c(O)cccc3F)c(Cl)cc21 (single isomer, unassigned) [Compound Z39-2] | 2240 nM | 316 nM | 7780 nM |  |  |
| C=CC(=O)N1C[C@@H]2C(=O)N(C)c3c(c4cc(Cl)c(-c5c(O)cccc5F)nc4n(-c4c(C(C)C)ncnc4C(C)C)c3=O)N2C[C@H]1C [Compound Z23, (2R,4aR)-3-acryloyl-11-chloro-8-(4,6-diisopropylpyrimidin-5-yl)-10-(2-fluoro-6-hydroxyphenyl)-2,6-dimethyl-2,3,4,4a,6,8-hexahydro-1H-pyrazino[1′,2′:4,5]pyrazino[2,3-c][1,8]naphthyridin-5,7-dione] |  |  |  | 10500 nM | IC50 ([1]; Homo sapiens, NCI-H358, 120 h): 2 nM; IC50 [3]: 2 nM; Tumor Volume on Day 14 after Administration ([4]; 1 mg/kg): 194.65 mm^3; TGI ([4]; 1 mg/kg): 113.2%; Tumor Volume on Day 14 after Administration ([4]; 3 mg/kg): 59.52 mm^3; TGI ([4]; 3 mg/kg): 143.5%; Tumor Volume on Day 14 after Administration ([4]; 10 mg/kg): 47.32 mm^3; TGI ([4]; 10 mg/kg): 149.2%; IC50 [5]: 17 nM |
